Test results from article PMC6943434, “Novel Homo-Bivalent and Polyvalent Compounds Based on Ligustrazine and Heterocyclic Ring as Anticancer Agents” (Molecules, 2019).
Like-named read-outs stand apart in the source and are kept apart here.

Experiments:
[1] = test system: MCF-7 (breast cancer cell line); test: MTT cell viability assay, MCF-7; format: cell-based; settings: Homo sapiens, MCF7, 48 h, read-out: Antiproliferative Activity IC50 ± SEM, MCF-7
Protocol: (§1) The tested cells were obtained from Shanghai Institute of Biochemistry and Cell Biology of the Chinese Academy of Sciences (Shanghai, China). HeLa and Hep G2 cell lines were cultured in Dulbecco’s modified Eagle’s medium (DMEM; gibco, Life Technologies, Carlsbad, CA, USA) supplemented with 10% fetal bovine serum (FBS; Biological Industries), 100 U/mL penicillin-streptomycin (PS; gibco, Life Technologies, Carlsbad, CA, USA). MCF-7 and A549 cell lines were maintained in RPMI-1640 media (gibco, Life Technologies, Carlsbad, CA, USA) supplemented with 10% FBS and 100 U/mL PS. FaDu cell lines were cultured in minimum essential medium (MEM; Gibco, Life Technologies, Carlsbad, CA, USA) supplemented with 10% FBS and 100 U/mL PS. MCF 10A cell lines were maintained in Mammary MEGM kit (Lonza/Clonetics) supplemented with 100 ng/mL cholera toxin (Sigma, Shanghai, China). Cell lines were grown at 37 °C in a humidified atmosphere of 5% CO2.
(§2) The growth-inhibitory effects against HeLa, Hep G2, MCF-7, FaDu, and A549 cancer cells and normal cell lines MCF 10A were determined by MTT assay. […] Cells were seeded in 96 well plates at a density of 1 × 10^4 cells per well and incubated for 24 h at 37 °C in a humidified atmosphere of 5% CO2. The cells were then incubated with various concentrations of drugs for 48 h in a 5% CO2 incubator at 37 °C. After treatment with 1 mg/mL 3-(4,5-dimethylthiazol-2-yl)-2,5-diphenyltetrazolium bromide (MTT) solution for 4 h, the formazan crystals were dissolved in 100 µL DMSO in each well. Plates were read on a microplate reader (Thermo Varioskan Flash 3001) at 490 nm. The experiment was performed in triplicate. The inhibitory concentration at 50% (IC50) was calculated based on concentration-inhibition relationships via regression using SPSS software (Version 17.0).

[2] = test system: HeLa, Hep G2, MCF-7, FaDu, A549, MCF 10A; test: MTT cell viability assay, summary over the cell line panel; format: cell-based, human; settings: 48 h, span over the cell lines, read-out: IC50 range over tested cell lines
Protocol: as §1, §2

[3] = test system: FaDu (head and neck squamous carcinoma cell line); test: MTT cell viability assay, FaDu; format: cell-based, human; settings: for IC50: Homo sapiens, FaDu, 48 h, MTT, read-out: Antiproliferative Activity IC50 ± SEM, FaDu; for SI: selectivity index: SI = IC50 (MCF 10A)/IC50 (FaDu)
Protocol: as §1, §2

[4] = test system: Hep G2 (hepatocarcinoma cell line); test: MTT cell viability assay, Hep G2; format: cell-based; settings: Homo sapiens, HepG2, 48 h, read-out: Antiproliferative Activity IC50 ± SEM, Hep G2
Protocol: as §1, §2

[5] = test system: MCF 10A (normal mammary epithelial cell); test: MTT cell viability assay, MCF 10A; format: cell-based; settings: Homo sapiens, 48 h, normal cells, read-out: Antiproliferative Activity IC50 ± SEM, MCF 10A
[6] = test system: A549 (epithelial cancer cell line); test: MTT cell viability assay, A549; format: cell-based; settings: Homo sapiens, 48 h, read-out: Antiproliferative Activity IC50 ± SEM, A549
Protocol: as §1, §2

[7] = test system: HeLa (cervical cancer cell line); test: MTT cell viability assay, HeLa; format: cell-based; settings: Homo sapiens, 48 h, read-out: Antiproliferative Activity IC50 ± SEM, HeLa
Protocol: as §1, §2

[8] = test system: FaDu cells; test: Colony formation assay; format: cell-based; settings: Homo sapiens, 240 h, 6 nM, 10 days, read-out: colony inhibition rate
Protocol: FaDu cells were seeded in a 6-well plate with 500 cells per well and incubated for 24 h. Then, the cells were treated with compound 8e at various final concentrations of 0, 0.75, 1.50, 3 nM. Following treatment for 10 days, the cells were washed with PBS twice and fixed with 4% paraformaldehyde for 10 min at room temperature. Then, the cell colonies were visualized by staining with 0.1% crystal violet for 10 min. The image was photographed with Handy camera, and the numbers of cell colonies were analyzed using the open Image J software (Developed by National Institutes of Health). A group of >50 cells was defined as one colony. Triplicate wells were set up for each concentration.

[9] = test system: FaDu cells; test: Cell cycle analysis by PI staining; format: cell-based, human; settings: 24 h; for percentage of cells in the S phase: control 28.1%; for population of the G0/G1 phase: control 51.9%
Protocol: The cell cycle analysis was carried out by a cell cycle and apoptosis analysis kit with a propidium iodide (PI) staining method (Beyotime Institute of Biotechnology, Shanghai, China). Briefly, FaDu cells were incubated with the above-mentioned doses of compound 8e for 24 h; all samples were collected, washed once with cold 1× PBS, and fixed by 70% ice-cold ethanol at 4 °C for 12 h. Then, the fixed cells were washed once with cold 1× PBS and stained with 500 µL 1× PI dye solution (containing 10 µL RNase A) at 37 °C for 30 min in the dark. The red fluorescence was detected using a flow cytometer (CyFlow® Cube 6, Sysmex). The data were analyzed using FlowJo Software (Tree Star Inc, Ashland, OR, USA).

[10] = test system: FaDu cells; test: Flow cytometric analysis of apoptosis by annexin V-FITC/PI staining; format: cell-based, human; settings: 24 h, control 8.23%
Protocol: Apoptosis in FaDu cells was evaluated by an annexin V-FITC/PI apoptosis detection kit (Beyotime Institute of Biotechnology, Shanghai, China). Briefly, FaDu cells were treated with various concentrations of compound 8e (2, 5, 10 nM) or DMSO as vehicle control for 24 h at 37 °C; then, the cells were washed twice with cold 1× PBS and centrifuged at 1000 rpm for 5 min. The harvested cells were resuspended gently in 400 µL binding buffer, containing 5 µL annexin V-FITC and 10 µL PI. After incubating for 15 min in the dark at room temperature, the cells were analyzed with flow cytometry (CyFlow® Cube 6, Sysmex). Data were shown as pseudo color graphs and analyzed using FlowJo Software (Tree Star Inc, Ashland, OR).

Question: How did the IC50 [1] turn out when `Cc1nc(C)c(CN(CCCCCCCCCCCCN(Cc2nc(C)c(C)nc2C)Cc2nc(C)c(C)nc2C)Cc2nc(C)c(C)nc2C)nc1C` [Compound 6g, N^1,N^1,N^12,N^12-Tetrakis((3,5,6-Trimethylpyrazin-2-yl)Methyl)Dodecane-1,12-Diamine] was run?
Answer: 9.83 ± 0.17 µM

Question: What about the IC50 ([2]; Homo sapiens) of the same molecule?
Answer: 6.57 to 20.8 µM

Question: What about the IC50 [3] of the same molecule?
Answer: 6.8 ± 0.05 µM

Question: And the “SI: selectivity index” value [3]?
Answer: 0.97

Question: And the IC50 [4]?
Answer: 9.62 ± 0.11 µM

Question: What about the IC50 [5] of the same molecule?
Answer: 6.57 ± 0.3 µM

Question: And the IC50 [6]?
Answer: 9.23 ± 0.16 µM

Question: What about the IC50 [7] of the same molecule?
Answer: 7.89 ± 0.86 µM

Question: How did the IC50 [1] turn out when `Cc1nc(C)c(C(=O)NCCCCCCCCCCNC(=O)c2nc(C)c(C)nc2C)nc1C` [Compound 8e, N,N′-(Decane-1,10-Diyl)Bis(3,5,6-Trimethylpyrazine-2-Carboxamide)] was run?
Answer: 0.037 ± 0.001 µM

Question: And the IC50 [2]?
Answer: 0.00136 to 1.42 µM

Question: What about the inhibition at 0.006 µM [8] of the same molecule?
Answer: ~85.4%

Question: What about the IC50 [3] of the same molecule?
Answer: 0.00136 ± 0.00035 µM

Question: What about the “SI: selectivity index” value [3] of the same molecule?
Answer: 34.56

Question: And the IC50 [4]?
Answer: > 20 µM

Question: What about the “percentage of cells in the S phase” value ([9]; 2 nM) of the same molecule?
Answer: 33.7%

Question: And the “population of the G0/G1 phase” value ([9]; 2 nM)?
Answer: 41.8%

Question: And the “percentage of cells in the S phase” value ([9]; 5 nM)?
Answer: 44.3%

Question: And the “population of the G0/G1 phase” value ([9]; 5 nM)?
Answer: 44.2%

Question: And the “percentage of cells in the S phase” value ([9]; 10 nM)?
Answer: 54.7%

Question: And the “population of the G0/G1 phase” value ([9]; 10 nM)?
Answer: 32.4%

Question: What about the “apoptotic cells (early and late apoptosis ratios)” value ([10]; 2 nM) of the same molecule?
Answer: 34.2%

Question: What about the “apoptotic cells (early and late apoptosis ratios)” value ([10]; 5 nM) of the same molecule?
Answer: 57.7%

Question: What about the “apoptotic cells (early and late apoptosis ratios)” value ([10]; 10 nM) of the same molecule?
Answer: 79.5%

Question: And the IC50 [5]?
Answer: 0.047 ± 0.008 µM

Question: And the IC50 [6]?
Answer: 1.05 ± 0.05 µM

Question: What about the IC50 [7] of the same molecule?
Answer: 1.42 ± 0.71 µM

Question: With `O=C(/C=C/c1ccccc1)NCCOCCOCCOCCNC(=O)/C=C/c1ccccc1` [Compound 9k, (2E,2′E)-N,N′-(((Oxybis(Ethane-2,1-Diyl))Bis(Oxy))Bis(Ethane-2,1-Diyl))Bis(3-Phenylacrylamide)] as the molecule, how does the IC50 [1] read?
Answer: > 20 µM

Question: What about the IC50 [3] of the same molecule?
Answer: 4.45 ± 0.208 µM

Question: And the “SI: selectivity index” value [3]?
Answer: >4.50

Question: What about the IC50 [4] of the same molecule?
Answer: > 20 µM

Question: And the IC50 [5]?
Answer: > 20 µM

Question: What about the IC50 [6] of the same molecule?
Answer: > 20 µM

Question: And the IC50 [7]?
Answer: > 20 µM

Question: Which results are given for `O=C(/C=C/c1ccccc1)OCCCCCCCCCCCCOC(=O)/C=C/c1ccccc1` [Compound 9i, Dodecane-1,12-Diyl (2E,2′E)-Bis(3-Phenylacrylate)]?
Answer: IC50 [1]: > 20 µM; IC50 [3]: > 20 µM; IC50 [4]: > 20 µM; IC50 [5]: > 20 µM; IC50 [6]: > 20 µM; IC50 [7]: > 20 µM

Question: `Cc1nc(C)c(CN(CCCCCCCCCCN(Cc2nc(C)c(C)nc2C)Cc2nc(C)c(C)nc2C)Cc2nc(C)c(C)nc2C)nc1C` [Compound 6f, N^1,N^1,N^10,N^10-Tetrakis((3,5,6-Trimethylpyrazin-2-yl)Methyl)Decane-1,10-Diamine] was tested. Which IC50 [1] did it give?
Answer: 20.83 ± 0.14 µM

Question: And the IC50 ([2]; Homo sapiens)?
Answer: 6.57 to 20.8 µM

Question: And the IC50 [3]?
Answer: 10.9 ± 0.12 µM

Question: And the “SI: selectivity index” value [3]?
Answer: 1.19

Question: And the IC50 [4]?
Answer: 10.7 ± 0.22 µM

Question: What about the IC50 [5] of the same molecule?
Answer: 13 ± 0.55 µM

Question: And the IC50 [6]?
Answer: 20.1 ± 0.41 µM

Question: What about the IC50 [7] of the same molecule?
Answer: 10.2 ± 0.55 µM

Question: How did the IC50 [1] turn out when `O=C(/C=C/c1ccccc1)OCCOCCOCCOCCOC(=O)/C=C/c1ccccc1` [Compound 9m, ((Oxybis(Ethane-2,1-Diyl))Bis(Oxy))Bis(Ethane-2,1-Diyl) (2E,2′E)-bis(3-Phenylacrylate)] was run?
Answer: > 20 µM

Question: And the IC50 [3]?
Answer: > 20 µM

Question: And the IC50 [4]?
Answer: > 20 µM

Question: And the IC50 [5]?
Answer: > 20 µM

Question: What about the IC50 [6] of the same molecule?
Answer: > 20 µM

Question: And the IC50 [7]?
Answer: > 20 µM

Question: How did the IC50 [1] turn out when `COc1ccc(/C=C/C(=O)NCCCCCCCCCCNC(=O)/C=C/c2ccc(OC)c(O)c2)cc1O` [Compound 26e, (2E,2′E)-N,N′-(Decane-1,10-Diyl)Bis(3-(3-Hydroxy-4-Methoxyphenyl)Acrylamide)] was run?
Answer: > 20 µM

Question: What about the IC50 [3] of the same molecule?
Answer: > 20 µM

Question: What about the IC50 [4] of the same molecule?
Answer: > 20 µM

Question: And the IC50 [5]?
Answer: > 20 µM

Question: And the IC50 [6]?
Answer: > 20 µM

Question: What about the IC50 [7] of the same molecule?
Answer: > 20 µM

Question: How did the IC50 [1] turn out when `COc1cc(/C=C/C(=O)NCCCCCCCCCCNC(=O)/C=C/c2cc(OC)c(O)c(OC)c2)cc(OC)c1O` [Compound 28e, (2E,2′E)-N,N′-(Decane-1,10-Diyl)Bis(3-(4-Hydroxy-3,5-Dimethoxyphenyl)Acrylamide)] was run?
Answer: > 20 µM

Question: And the IC50 [3]?
Answer: > 20 µM

Question: What about the IC50 [4] of the same molecule?
Answer: > 20 µM

Question: What about the IC50 [5] of the same molecule?
Answer: > 20 µM

Question: And the IC50 [6]?
Answer: > 20 µM

Question: And the IC50 [7]?
Answer: > 20 µM

Question: Which IC50 [1] does the source give for `O=C(/C=C/c1ccc(Cl)cc1)NCCCCCCCCCCNC(=O)/C=C/c1ccc(Cl)cc1` [Compound 25e, (2E,2′E)-N,N′-(Decane-1,10-Diyl)Bis(3-(4-Chlorophenyl)Acrylamide)] here?
Answer: > 20 µM

Question: What about the “SI: selectivity index” value [3] of the same molecule?
Answer: >357.14

Question: And the IC50 [4]?
Answer: > 20 µM

Question: And the IC50 [5]?
Answer: > 20 µM

Question: And the IC50 [6]?
Answer: > 20 µM

Question: And the IC50 [7]?
Answer: > 20 µM
